Experiment [1] deals with AG3(T2AG3)3 (G4-Tel, telomeric G4) (DNA, G4) AGGGTTAGGGTTAGGGTTAGGG
The experiment in a line: CD melting at 295 nm. The settings on record: K+ 100 mM KCl, plus potassium phosphate; 20 mM phosphate, pH 6.8; 2 equivalents of ligand; Tm 56.1 alone.

Experiment [2] shares this test system. As to the kind of experiment: G4-FID fluorescence displacement. The note with it: K+ 100 mM KCl, plus potassium phosphate, PBS pH 6.8, 25 °C, thiazole orange displaced.
For experiment [3] the test system is unchanged. As to the kind of experiment: UV-Vis titration. The settings on record: K+ 100 mM KCl, plus potassium phosphate, 20 mM phosphate, pH 6.8, ligand 2 μM.

Drawing on publication PMC10489911 (2023), this text covers ΔTm, DC50 and Kb for 3 molecules.

Each structure is given as a SMILES string.

As for `C[n+]1ccc(-c2cc3c(cc2-c2cc[n+](C)cc2)-c2nc-3c(-c3ccccc3)c3ccc([nH]3)c(-c3ccccc3)c3nc(c(-c4ccccc4)c4ccc([nH]4)c2-c2ccccc2)-c2cc(-c4cc[n+](C)cc4)c(-c4cc[n+](C)cc4)cc2-3)cc1`, in experiment [1], the ΔTm turned out to be 2.3 °C. The DC50 in experiment [2] (table prints 0.90 ± 0.04, its ratio 2.01 fits 0.99) turned out to be 0.99 µM. For the same molecule, the Kb in experiment [3] is on record as 6.01 ± 1.11 × 10^6 M^−1.
Turning to `C[n+]1ccc(-c2cc3c(cc2-c2cc[n+](C)cc2)-c2nc-3c(-c3ccccc3)c3ccc([n-]3)c(-c3ccccc3)c3nc(c(-c4ccccc4)c4ccc([n-]4)c2-c2ccccc2)-c2cc(-c4cc[n+](C)cc4)c(-c4cc[n+](C)cc4)cc2-3)cc1.[Zn+2]`, in experiment [1], the ΔTm was found to be 7.4 °C. Further, the DC50 in experiment [2] turned out to be 0.42 ± 0.08 µM. Moreover, the Kb in experiment [3] (ligand aggregates in buffer) was 7.05 ± 1.31 × 10^6 M^−1.
Turning to `C[n+]1ccc(-c2cc3c(cc2-c2cc[n+](C)cc2)-c2nc-3c(-c3ccccc3)c3ccc([n-]3)c(-c3ccccc3)c3nc(c(-c4ccccc4)c4ccc([n-]4)c2-c2ccccc2)-c2cc(-c4cc[n+](C)cc4)c(-c4cc[n+](C)cc4)cc2-3)cc1.[Ni+2]`, the ΔTm in experiment [1] worked out at 8.5 °C. Also, the DC50 in experiment [2] (text prints 1.04) was found to be 1.02 ± 0.06 µM. Also, the Kb in experiment [3] (ligand aggregates in buffer) is recorded as 3.71 ± 1.28 × 10^6 M^−1.

By ΔTm is commonly meant the shift of the melting midpoint relative to a reference.
